Data from patent US20070128181A1, “Methods of Preventing Morbidity and Mortality by Perioperative Administration of a Blood Clotting Inhibitor” (priority 2002, published 2007).

Tested on: patients with medically-refractory coronary artery disease scheduled for coronary artery bypass surgery
Test: Prospective, longitudinal study of aspirin use within 48 hours of revascularization in coronary artery bypass surgery patients
Format: in vivo
Excerpt: A prospective, longitudinal study enrolled 5,436 patients. Eligible patients included those with medically-refractory coronary artery disease and scheduled for coronary artery bypass surgery at 70 medical institutions among 17 countries in North and South America, Europe, the Middle East and Asia. At each institution, 100 patients were to be prospectively enrolled according to a systematic sampling scheme that allowed a random sampling of patients at each institution among all patients undergoing surgery at that institution.
Of the 5,436 patients enrolled, 5,065 patients completed the study and were included in the final analysis. Of the 371 patients excluded, 32 were excluded due to patient withdrawal, 2 due to death prior to surgery, 97 due to cancellation or rescheduling of surgery, 132 patients due to change in procedure, 11 due to inadvertent enrollment in another study, 86 due to incomplete data and 11 due to incomplete blood sampling, shipping or storage.
Aspirin was administered in doses of 160 mg to 650 mg to 3,001 patients within 48 hours of revascularization. All potential side-effects associated with aspirin use were recorded daily by blinded investigators. Independent investigators coded all medications received-including pro- and anti-thrombotic and pro- and anti-coagulant medications, and blood products—by day throughout hospitalization, as well as at admission and at discharge, or until death.
For each enrolled patient, approximately 7,500 fields of data were collected throughout the patient's index hospitalization, from admission until discharge, by independent investigators; treated physicians were blinded to all research data. Data included demographic, historical, clinical, laboratory, eloectrocardiographic, specialized testing, resource utilization, and adverse outcomes. Following last patient enrollment, all data fields for each patient were queried centrally for completeness and accuracy, with all changes documented prior to database closure.
All outcomes were prespecified, defined by protocol, and discerned by investigators blinded to treatment group. Fatal and non-fatal outcomes were classified as cardiac (myocardial infarction, congestive heart failure and cardiac death), cerebral (stroke, encephalopathy and cerebral death), renal (dysfunction, failure and renal death), gastrointestinal (ischemia, infarction and GI death), or other (such as infectious, pulmonary). The diagnosis of myocardial infarction required either: the development of new Q waves (as defined by Minnesota Code 1-1-1I or 1I-2-7); or new persistent S T-segment or T-wave changes (Minnesota Code 4-1,4-2, 5-1 or 5-2) associated with an elevation of CK-MB isoenzyme values; or autopsy evidence of acute myocardial infarction. The diagnosis of heart failure required either: the use of a ventricular assist device; or the use of continuous inotropic support for at least 24 hours; or autopsy evidence of heart failure. Cerebral outcomes were classified as: clinically diagnosed stroke or encephalopathy; or CT, MRI or autopsy evidence of a focal or global defect. Renal dysfunction was defined as: a serum creatinine ≧177 μmol/L accompanied by a ≧62 μmol/L rise over baseline; and renal failure was defined as dysfunction requiring dialysis, or autopsy evidence of renal failure. Gastrointestinal ischemia was defined as abdominal pain diagnosed as intestinal ischemia, or detected at exploration; infarction required bowel resection, or autopsy evidence of intestinal infarction.
The risk of death for aspirin taking versus control populations were compared using the Chi-Square test. Individual ischemic outcomes involving the heart, brain, kidney and gastrointestinal tract, and combined ischemic outcomes were compared using Fisher's Exact Test or the Chi-Square test as appropriate. Odds ratios and the 95% confidence intervals are presented with associated P values. […]

Row | Compound | Odds Ratio, Multivariate Analyses for Morality (use over the week prior to revascularization, 95% CI 1.23-3.25, P 0.005) | risks of dying and ischemic complications associated with platelet transfusion after reperfusion and prophylactic anti-fibrinolytics (FIG. 3A) | risk of dying during hospitalization (aspirin within 48 hours of revascularization, v. 5.9% without aspirin, P<0.0001) | risk of non-fatal ischemic complications associated with the heart, brain, kidney or gastrointestinal tract (aspirin within 48 hours of revascularization, v. 24.5% without aspirin, P<0.0001) | Odds Ratio, Multivariate Analyses for Morality (discontinuation of use (Table 3B)) | survival over the first 30 postsurgical days (early aspirin use, FIG. 2) | reduction in mortality (first use of aspirin 48 hours after surgery, not significant, P=0.534) | Gastritis, % of patients (human, in vivo) | Hemorrhage: Gastrointestinal tract bleeding, % of patients (human, in vivo) | Hemorrhage: Other Source of Bleeding, % of patients (human, in vivo) | Impaired Wound Healing, % of patients (human, in vivo) | Infection, % of patients (human, in vivo) | Return to operating room for bleeding, % of patients (human, in vivo) | Odds Ratio, Multivariate Analyses for Morality (use at admission (Table 3B)) | Odds Ratio, Multivariate Analyses for Morality (use following revascularization, 95% CI 0.19-0.40, P <0.0001) | Odds Ratio, Multivariate Analyses for Morality (use prior to surgery (Table 3B)) | Length of hospitalization (versus 11.32±9.44 without aspirin, P<0.0001) | patients who died within 12 hours of surgery (versus 25 patients in the control group) | patients who died within 48 hours of surgery (versus 42 patients from the control group)
1 | CC(=O)CC(c1ccccc1)c1c(O)c2ccccc2oc1=O (stereo not shown) [Warfarin/coumadin, warfarin] | 2.00 | – | – | – | – | – | – | – | – | – | – | – | – | – | – | – | – | – | –
2 | CC(=O)Oc1ccccc1C(=O)O [Aspirin, aspirin] | – | substantially reduced, but did not eliminate these risks | 1.4% | 13.6% | 1.04 | Improved survival | 15% | 0.33% | 1.1% | 1.7% | 4.5% | 8.4% | 1.9% | 1.46 | 0.27 | 0.77 | 9.57±7.14 | none | one
